Usually inhibition stands for how much of the control response was suppressed. What is called IC50 is the concentration that inhibits the measured activity by half. The term EC50 denotes the concentration at which the effect is half-maximal. For orientation: CC50 means the concentration giving 50% cytotoxicity. One may read the Kd as the constant that tells how readily two partners part at equilibrium. What is called half-life is the time in which the quantity being followed falls by half.

Each structure is given as a SMILES string. Activity calls are given as the source filed them. The rule behind the calls is not given here.

The target of series [1] is Polymerase basic protein 2 (Influenza A virus (strain A/Puerto Rico/8/1934 H1N1)) (UniProt P03428). As to the kind of experiment: Inhibition of influenza A virus polymerase PB2 expressed in HEK293T cells cotransfected with PGK-renilla-luciferase assessed as remaining activity at 10 uM pretreated with cells for 2 hrs followed by enzyme addition and measured after 24 hrs by dual-Glo luciferase assay relative to control. The format is cell-based. Conditions: time 26.0 hrs.
Polymerase basic protein 2 (Influenza A virus (strain A/Puerto Rico/8/1934 H1N1)), sequence (P03428 whole entry, looked up, the tested form may be a part): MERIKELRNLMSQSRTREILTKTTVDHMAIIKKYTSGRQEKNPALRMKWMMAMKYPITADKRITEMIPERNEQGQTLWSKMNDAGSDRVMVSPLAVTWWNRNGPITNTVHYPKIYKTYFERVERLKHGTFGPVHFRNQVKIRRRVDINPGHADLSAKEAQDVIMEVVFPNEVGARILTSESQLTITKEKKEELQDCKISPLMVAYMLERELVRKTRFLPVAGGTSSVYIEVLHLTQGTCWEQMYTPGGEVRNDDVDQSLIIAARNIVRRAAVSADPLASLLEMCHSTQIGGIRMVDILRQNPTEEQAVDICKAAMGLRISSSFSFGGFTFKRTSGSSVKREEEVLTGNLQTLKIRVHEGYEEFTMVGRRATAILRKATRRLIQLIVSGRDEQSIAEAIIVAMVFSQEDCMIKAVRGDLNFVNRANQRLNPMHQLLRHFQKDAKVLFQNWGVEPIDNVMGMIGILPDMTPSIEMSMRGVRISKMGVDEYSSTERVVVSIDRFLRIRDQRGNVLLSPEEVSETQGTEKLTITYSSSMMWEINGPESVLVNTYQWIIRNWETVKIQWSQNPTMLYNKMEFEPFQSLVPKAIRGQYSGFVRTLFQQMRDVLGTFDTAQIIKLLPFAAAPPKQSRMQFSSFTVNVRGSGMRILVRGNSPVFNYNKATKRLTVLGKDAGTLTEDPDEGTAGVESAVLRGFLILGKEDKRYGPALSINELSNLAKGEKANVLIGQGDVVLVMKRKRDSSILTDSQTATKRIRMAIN

Series [2] has the same target. Put plainly: Inhibition of influenza A virus polymerase PB2 expressed in HEK293T cells cotransfected with PGK-renilla-luciferase at 10 uM pretreated with cells for 2 hrs followed by enzyme addition and measured after 24 hrs by dual-Glo luciferase assay relative to control. Type of series: cell-based. The conditions noted are these: time 26.0 hrs.
Series [3] addresses T1, Polymerase basic protein 2 (Influenza A virus (strain A/Puerto Rico/8/1934 H1N1), UniProt P03428). As to the kind of experiment: Inhibition of influenza A virus polymerase PB2 expressed in HEK293T cells cotransfected with PGK-renilla-luciferase pretreated with cells for 2 hrs followed by enzyme addition and measured after 24 hrs by dual-Glo luciferase assay. The format is cell-based.

For series [4], the system named is Influenza A virus. As to the kind of experiment: Antiviral activity against Influenza A virus A/WSN/33(H1N1) infected in A549 cells assessed as reduction in cell cytopathic effect incubated with cells for 2 hrs prior to viral infection followed by MDCK cells addition at 24 hrs pi and measured after 72 hrs by Reed-Muench method. The format is functional, organism-based.

Series [5] can be described thus: Selectivity index, ratio of CC50 for human A549 cells to EC50 for antiviral activity against Influenza A virus A/WSN/33(H1N1) infected in A549 cells. Type of series: toxicity, cell-based. The conditions noted are these: read-out: Ratio CC50/EC50.
Series [6] is described as follows: Cytotoxicity against human A549 cells assessed as reduction in cell viability incubated for 96 hrs by CCK-8 method. The format is toxicity, cell-based. On the technique in general: Tetrazolium dyes change colour on reduction, which living cells bring about.
Series [7] has as its target T1, Polymerase basic protein 2. As to the kind of experiment: Binding affinity to recombinant Influenza A virus polymerase PB2 cap-binding domain (318 to 413 residues) assessed as dissociation constant by ITC method.
In series [8] the test system is Influenza A virus. Put plainly: Antiviral activity against Influenza A virus A/WSN/33(H1N1) infected in BALB/c mouse assessed as log reduction in lung viral titer at 12 mg/kg, po BID administered starting from 2 hrs before infection and measured on day 3 (reference value: 6.916 +/- 0.4736). The conditions noted are these: time 3 day. Type of series: functional.
Series [9] relates to Influenza A virus. Put plainly: Antiviral activity against Influenza A virus A/WSN/33(H1N1) infected in BALB/c mouse assessed as log10 reduction in viral titer at 12 mg/kg, po BID administered starting from 2 hrs before infection and measured on day 3. The conditions noted are these: time 3 day. Type of series: functional.
The target of series [10] is Polymerase basic protein 2 (Influenza A virus (strain A/Puerto Rico/8/1934 H1N1)) (UniProt P03428). Put plainly: Potency index, ratio of m7GTP Kd to test compound Kd for recombinant Influenza A virus polymerase PB2 cap-binding domain (318 to 413 residues).
Series [11] has as its target Voltage-gated inwardly rectifying potassium channel KCNH2 (Homo sapiens, UniProt Q12809). Put plainly: Inhibition of hERG by manual patch clamp method. The format is toxicity. On the technique in general: hERG is a cardiac potassium channel; its block is linked to QT prolongation.
The nature of series [12]: Toxicity in BALB/c mouse infected with Influenza A virus A/WSN/33(H1N1) assessed as body weight loss at 12 mg/kg, po BID administered starting from 2 hrs before infection and measured on day 3. The format is organism-based. The conditions noted are these: in vivo, 72 h, time 3 day.
Series [13] can be described thus: Toxicity in BALB/c mouse assessed as animal death at 40 mg/kg, po administered once daily for 3 days. Type of series: organism-based. Conditions: in vivo, 72 h, time 3 day.
Series [14] concerns Influenza A virus. Put plainly: Antiviral activity against Influenza A virus A/WSN/33(H1N1) infected in BALB/c mouse assessed as increase in survival ratio at 12.5 to 25 mg/kg, po BID administered starting from 2 days post-infection to 9 days and measured for 15 days. Type of series: functional. Conditions: dose 12.5-25 mg/kg, time 15 day.
A short description of series [15]: Toxicity in BALB/c mouse assessed as poisoning symptom at 40 mg/kg, po administered once daily for 3 days. The conditions noted are these: in vivo, 72 h, time 3 day. Type of series: organism-based.
Series [16] is described as follows: Toxicity in BALB/c mouse assessed as change in body weight at 40 mg/kg, po administered for 3 days. Type of series: organism-based. Conditions: in vivo, 72 h, time 3 day.
A short description of series [17]: Toxicity in BALB/c mouse assessed as change in Cr level at 40 mg/kg, po administered for 3 days. Type of series: organism-based. The conditions noted are these: in vivo, 72 h, time 3 day.
Series [18] is described as follows: Toxicity in BALB/c mouse assessed as change in ALT level at 40 mg/kg, po administered for 3 days. The format is organism-based. Conditions: in vivo, 72 h, time 3 day.
For series [19], the system named is Influenza A virus. Put plainly: Antiviral activity against Influenza A virus A/WSN/33(H1N1) infected in BALB/c mouse assessed as recovery of ALT level at 12 mg/kg, po BID administered starting from 2 hrs before infection and measured on day 3. The format is functional, organism-based. Conditions: time 3.0 day.
Series [20] in a line: Stability in mouse plasma assessed as half life. The format is ADME, cell-free.
Series [21] has as its system Influenza A virus. As to the kind of experiment: Antiviral activity against wild type Influenza A/WSN/33 at 0.3 uM. The format is functional, organism-based.
Series [22] deals with Influenza A virus. As to the kind of experiment: Antiviral activity against Influenza A virus A/WSN/33(H1N1) infected in BALB/c mouse assessed as recovery of AST level at 12 mg/kg, po BID administered starting from 2 hrs before infection and measured on day 3. The format is functional, organism-based. Conditions: time 3.0 day.
Series [23] is described as follows: Toxicity in BALB/c mouse infected with Influenza A virus A/WSN/33(H1N1) assessed as body weight loss at 12.5 to 25 mg/kg, po BID administered starting from 2 days post-infection to 9 days and measured for 15 days. Type of series: organism-based. Conditions: in vivo, 360 h, dose 12.5-25 mg/kg, time 15 day.
The nature of series [24]: Toxicity in BALB/c mouse assessed as change in AST level at 40 mg/kg, po administered for 3 days. The conditions noted are these: in vivo, 72 h, time 3 day. Type of series: organism-based.

T1 sequence (P03428 whole entry): as the sequence (P03428 whole entry, looked up, the tested form may be a part) above
Voltage-gated inwardly rectifying potassium channel KCNH2, sequence (Q12809 whole entry): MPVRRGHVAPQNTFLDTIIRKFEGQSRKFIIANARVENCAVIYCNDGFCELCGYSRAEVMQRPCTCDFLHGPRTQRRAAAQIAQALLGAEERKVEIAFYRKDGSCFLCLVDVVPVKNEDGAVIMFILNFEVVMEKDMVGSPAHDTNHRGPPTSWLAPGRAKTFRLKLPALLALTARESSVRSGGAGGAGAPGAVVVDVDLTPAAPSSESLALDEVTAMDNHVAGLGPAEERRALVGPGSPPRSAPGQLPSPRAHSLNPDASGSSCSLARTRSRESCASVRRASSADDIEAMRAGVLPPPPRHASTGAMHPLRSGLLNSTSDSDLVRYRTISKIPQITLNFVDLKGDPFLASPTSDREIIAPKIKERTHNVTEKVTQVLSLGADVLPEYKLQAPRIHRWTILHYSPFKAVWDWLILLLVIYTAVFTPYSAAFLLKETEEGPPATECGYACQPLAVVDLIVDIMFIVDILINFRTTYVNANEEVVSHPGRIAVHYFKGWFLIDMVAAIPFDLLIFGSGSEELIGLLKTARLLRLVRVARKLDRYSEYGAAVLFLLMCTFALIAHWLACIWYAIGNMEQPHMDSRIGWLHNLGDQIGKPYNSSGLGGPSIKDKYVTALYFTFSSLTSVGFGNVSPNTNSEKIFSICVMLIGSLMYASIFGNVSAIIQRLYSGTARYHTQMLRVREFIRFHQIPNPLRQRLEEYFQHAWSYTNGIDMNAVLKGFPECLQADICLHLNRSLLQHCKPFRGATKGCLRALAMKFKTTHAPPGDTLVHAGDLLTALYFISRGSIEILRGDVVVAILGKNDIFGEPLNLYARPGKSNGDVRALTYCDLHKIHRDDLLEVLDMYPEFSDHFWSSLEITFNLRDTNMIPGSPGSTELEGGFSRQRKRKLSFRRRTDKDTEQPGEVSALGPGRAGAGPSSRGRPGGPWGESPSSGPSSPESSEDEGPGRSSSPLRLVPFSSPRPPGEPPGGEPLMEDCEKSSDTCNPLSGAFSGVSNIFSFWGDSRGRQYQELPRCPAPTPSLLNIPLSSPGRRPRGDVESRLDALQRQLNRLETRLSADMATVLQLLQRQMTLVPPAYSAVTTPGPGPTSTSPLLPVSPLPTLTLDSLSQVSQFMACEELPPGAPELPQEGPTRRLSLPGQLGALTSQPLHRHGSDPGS

For `O=C(O)[C@@H]1Cc2ccccc2CN1Nc1nc(-c2c[nH]c3ncccc23)ncc1F`, in series [1], the Activity was found to be 73%. Moreover, the inhibition in series [2] stood at 27%.

With `O=C(O)[C@@H]1CCCCN1Nc1nc(-c2c[nH]c3ncccc23)ncc1F`, the Activity in series [1] was 67%. Moreover, the inhibition in series [2] is 33%.

In the case of `O=C(O)[C@@H]1CC2(CC2)CN1Nc1nc(-c2c[nH]c3ncc(F)cc23)ncc1F`, the IC50 in [3] worked out at 3070 nM. Further, the concentration for a half-maximal effect (EC50) with Influenza A virus [4] was found to be 1450 nM. Besides, in series [5], the selectivity ratio came to 60. Moreover, in series [6], the CC50 at 96 h turned out to be 87 µM. The Activity in [1] stood at 21%. Also, in series [7], the equilibrium dissociation constant (Kd) came to 145 nM. For the same compound, the inhibition in [2] is 79%.

With `O=C(O)[C@H]1C2CCC(CC2)[C@@H]1Nc1nc(-c2c[nH]c3ncc(F)cc23)ncc1F` [PIMODIVIR], the “log(activity)” value was found to be 0.964 in the series with Influenza A virus [8] and 6 in the series with Influenza A virus [9]. In addition, the concentration for half-maximal inhibition (IC50) in [3] came out at 4 nM. Moreover, in the series with Influenza A virus [4], the half-maximal effective concentration (EC50) amounted to 1 nM. For the same compound, the Activity in series [1] worked out at 0.1%. For the same compound, in series [2], the inhibition came out at 99.9%.

With `O=C(O)[C@@H]1CCCCN1Nc1nc(-c2c[nH]c3ncc(F)cc23)ncc1F`, the IC50 in series [3] is 1450 nM. The EC50 in the series on Influenza A virus [4] was determined as 1150 nM. In series [5], the selectivity ratio is above 87. The cytotoxic concentration (CC50) at 96 h in series [6] was above 100 µM. Moreover, in [1], the Activity was 12%. In addition, in series [2], the inhibition was 88%.

For the compound `CC(C)(C)N(CC(=O)O)Nc1nc(-c2c[nH]c3ncccc23)ncc1F`, the IC50 in series [3] is 290 nM. Moreover, the half-maximal effective concentration (EC50) with Influenza A virus [4] came to 170 nM. Moreover, in series [5], the selectivity ratio is above 597. Besides, the CC50 at 96 h in [6] was above 100 µM. In [1], the Activity is 0.2%. Further, the Kd in series [7] was found to be 468 nM. Moreover, in series [2], the inhibition stood at 99.8%.

Turning to `O=C(O)[C@@H]1C[C@@H]2CCCC[C@@H]2N1Nc1nc(-c2c[nH]c3ncc(F)cc23)ncc1F`, the IC50 in series [3] was 360 nM. Also, the concentration giving a half-maximal response (EC50) in the series with Influenza A virus [4] came to 50 nM. In addition, the selectivity ratio in series [5] is 1024. The half-maximal cytotoxic concentration (CC50) at 96 h in series [6] stood at 54.1 µM. Further, the Activity in series [1] turned out to be 0.1%. The dissociation constant (Kd) in series [7] was 202 nM. For the same compound, in series [2], the inhibition amounted to 99.9%.

For the compound `O=C(O)CN(Nc1nc(-c2c[nH]c3ncccc23)ncc1F)C1CCCCC1`, the Activity in [1] was found to be 34%. Moreover, the inhibition in [2] was 65%.

In the case of `CC(C1CC1)N(CC(=O)O)Nc1nc(-c2c[nH]c3ncc(F)cc23)ncc1F` (stereo not given), in series [1], the Activity amounted to 41%. Also, in series [2], the inhibition worked out at 59%.

As to `CCOC(=O)C1=C[C@@H](OC(CC)CC)[C@H](NC(C)=O)[C@@H](N)C1` [OSELTAMIVIR], the EC50 in the series on Influenza A virus [4] was 40 nM.

On to `CC(C)(C)N(CC(=O)O)Nc1nc(-c2c[nH]c3ncc(F)cc23)ncc1F`, for which the “log(activity)” value in the series with Influenza A virus [8] came to 4.988; in the series with Influenza A virus [9], 2. Besides, in series [10], the Ratio was found to be 3850. For the same compound, the results for the 50% inhibitory concentration (IC50) in [11] and in [3] were above 10 µM and 60 nM, respectively. Also, the Activity result in series [12] is given as “Non-Toxic”; in series [13], “Non-Toxic”; with Influenza A virus [14], 85.7%; in series [15], “Non-Toxic”; in series [16], “Non-Toxic”; in series [17], “Non-Toxic”. Further, the Activity result was “Non-Toxic” in series [18], 0.3% in series [1], “Non-Toxic” in series [23] and “Non-Toxic” in [24]. In addition, the EC50 with Influenza A virus [4] stood at 30 nM. Further, the selectivity ratio in series [5] is above 2920. For the same compound, in series [6], the CC50 at 96 h is above 100 µM. In addition, the outcome in the series with Influenza A virus [19], in the series on Influenza A virus [21] and with Influenza A virus [22] was Active. In series [20], the half-life is 720 min. The equilibrium dissociation constant (Kd) in [7] came out at 46.2 nM. Also, in [2], the inhibition was found to be 99.7%.

As to `O=C(O)CN(Nc1nc(-c2c[nH]c3ncc(F)cc23)ncc1F)C1CCCC1`, the Activity in series [1] came out at 46%. In addition, the inhibition in [2] is 54%.

In the case of `O=C(O)CN(Cc1ccccc1)Nc1nc(-c2c[nH]c3ncc(F)cc23)ncc1F`, the Activity in series [1] is above 100%. Moreover, in [2], the inhibition was 0%.

Regarding `O=C(O)CN(Nc1nc(-c2c[nH]c3ncccc23)ncc1F)C1CCCC1`, the Activity in [1] stood at 58%. In addition, in series [2], the inhibition was 42%.

Regarding `CC(C)(C)CN(CC(=O)O)Nc1nc(-c2c[nH]c3ncccc23)ncc1F`, in series [1], the Activity amounted to 65%. Besides, in series [2], the inhibition came out at 35%.

Consider `O=C(O)CN(Nc1nc(-c2c[nH]c3ncccc23)ncc1F)C1CCC1`, for which the Activity in series [1] is above 100%. Besides, the inhibition in [2] was 0%.

As to `O=C(O)[C@@H]1CCCN1Nc1nc(-c2c[nH]c3ncc(F)cc23)ncc1F`, in [1], the Activity came out at 62%. Further, the inhibition in series [2] stood at 38%.

`O=C(O)[C@@H]1Cc2ccccc2CN1Nc1nc(-c2c[nH]c3ncc(F)cc23)ncc1F`: in series [1], the Activity was 62%. Also, the inhibition in series [2] came out at 38%.

Values taken from ChEMBL document CHEMBL5385878, “Synthesis and structure-activity optimization of 7-azaindoles containing aza-β-amino acids targeting the influenza PB2 subunit” (Eur J Med Chem, 2023).
